The record followed here is PubChem BioAssay AID1996.

In brackets after ≈: the same amount, converted by molar mass.

Broadly, the kinetic solubility is solubility judged after dilution from a stock solution rather than from solid.

For this data set the following is noted: buffer; pH 7.4; 200.0 µM.
In the case of `Cc1ccccc1C(=O)O/N=C(\N)c1ccc([N+](=O)[O-])cc1`, the kinetic solubility was 6 µg/mL (≈ 20 µM).

On to `Cn1c(N)c(C(=O)Nc2ccc(-c3ccccc3)cc2)sc1=S`, for which the kinetic solubility amounted to 0.6 µg/mL (≈ 1.76 µM).

In turn, `Cc1oncc1C(=O)NC1CCCCC1` registered a kinetic solubility of over 31.2 µg/mL.

Turning to `CC(=O)N1CCN(C(=O)c2ccco2)CC1`, the kinetic solubility is over 33.3 µg/mL.

For the compound `Cc1cccc(C)c1NC(=O)CNC(=O)CNC(=O)c1ccc2c(c1)OCO2`, the kinetic solubility is over 57.5 µg/mL.

In turn, `NC1=NC(=O)/C(=C\c2cccnc2)S1` had a solubility (kinetic) of over 30.8 µg/mL.

Consider `COc1ccc(C(=O)NC(CCSC)C(=O)NC2CC2)cc1` (configuration not stated), for which the solubility (kinetic) is over 48.4 µg/mL.

For the compound `Cc1cc(F)ccc1S(=O)(=O)Nc1ccc(C(=O)N2CCCCC2)cc1`, the kinetic solubility was over 56.5 µg/mL.

Consider `Nc1ccccc1C(=O)Nc1cccc2ccccc12`, for which the kinetic solubility amounted to 24.7 µg/mL (≈ 94.2 µM).

`COc1ccc(CCC(=O)NCC2CCCCC2)cc1OC` yielded a kinetic solubility of over 45.8 µg/mL.

As to `Cc1ccc(S(=O)(=O)N2CCOCC2)cc1NC(=O)COC(=O)/C=C/c1ccco1`, the solubility (kinetic) amounted to 11.4 µg/mL (≈ 26.2 µM).

On to `CCC(C)NC(=O)C1CCN(S(=O)(=O)N2CCOCC2)CC1` (configuration not stated), for which the kinetic solubility is over 50 µg/mL.

In turn, `Cn1cccc1/C=C1/SC(=O)N(CC(=O)N2CCCC2)C1=O` had a solubility (kinetic) of 15.2 µg/mL (≈ 47.6 µM).

As for `O=C(COC(=O)/C=C/c1ccccc1[N+](=O)[O-])Nc1ccc(S(=O)(=O)N2CCOCC2)cc1`, the solubility (kinetic) came out at 24 µg/mL (≈ 50.5 µM).

Turning to `CCCS(=O)(=O)Nc1cccc(-c2nc3cccnc3s2)c1`, the kinetic solubility is 2.4 µg/mL (≈ 7.2 µM).

As to `O=C1/C(=C/c2cccnc2)N2CCC1CC2`, the kinetic solubility was over 32.1 µg/mL.

In turn, `Cn1cc(C(=O)OCC(=O)N2CCCCC2)c2ccccc21` gave a solubility (kinetic) of over 45.1 µg/mL.

Consider `CC(C)C1C(=O)CC(c2ccccc2)NC1c1ccccc1` (configuration not stated), for which the kinetic solubility turned out to be 1.6 µg/mL (≈ 5.45 µM).

In turn, `Cc1ccc(-c2c(C(=O)O)c3ccccc3[nH]c2=O)cc1` had a solubility (kinetic) of over 41.9 µg/mL.

Regarding `O=C(COC(=O)c1cccc(OC(F)F)c1)NCC1CCCO1` (configuration not stated), the solubility (kinetic) was over 49.4 µg/mL.

Consider `CCC(C)NS(=O)(=O)c1cc2c3c(c1)CCC(=O)N3CCC2` (configuration not stated), for which the kinetic solubility was over 48.4 µg/mL.

`Cc1cccc(CSc2nc3ccccc3c(=O)n2C)c1` had a kinetic solubility of 1.2 µg/mL (≈ 4.05 µM).

Turning to `COc1ccc(CNC(=O)COC(=O)c2cc(S(=O)(=O)N3CCOCC3)ccc2O)cc1OC`, the kinetic solubility was over 74.2 µg/mL.

For the compound `CCc1cc2c(SCc3ccc(C(=O)OC)o3)ncnc2s1`, the kinetic solubility turned out to be 1.8 µg/mL (≈ 5.38 µM).

In turn, `COc1cc(OC)c(OC)cc1CN1CCSCC1` came in with a kinetic solubility of 32.3 µg/mL (≈ 114 µM).

For the compound `CCc1cc2cccc(C)c2nc1SCC(=O)NC1CCCC1`, the solubility (kinetic) was under 0.4 µg/mL.

The compound `CCOc1ccc(-c2nc(N)ncc2Oc2ccc(OC)cc2)c(O)c1` registered a solubility (kinetic) of 1 µg/mL (≈ 2.83 µM).

With `COC(=O)c1ccc(S(=O)(=O)NCCc2ccccc2OC)n1C`, the kinetic solubility amounted to 23 µg/mL (≈ 65.3 µM).

`Cc1cc(=O)oc2cc(OCC(=O)N3c4ccccc4NC(=O)C3(C)C)ccc12` yielded a kinetic solubility of 17.3 µg/mL (≈ 44.1 µM).

On to `O=C(COC(=O)CCC(=O)c1cccs1)NCc1ccccc1`, for which the kinetic solubility was determined as 45.6 µg/mL (≈ 138 µM).

As for `CCN1C(C#N)=C(C#N)N=C(C)CC1(C)C`, the solubility (kinetic) was determined as 29.8 µg/mL (≈ 138 µM).

Turning to `CC(=O)N/C(=C\c1ccccc1)C(=O)OCC(=O)Nc1ccc(C)c(S(=O)(=O)N(C)C)c1`, the solubility (kinetic) came out at 56.9 µg/mL (≈ 124 µM).

Turning to `CCOC(=O)C1C(c2ccc(Cl)cc2)NC(=S)NC1(O)C(F)(F)F` (configuration not stated), the solubility (kinetic) stood at 37.8 µg/mL (≈ 98.7 µM).

The compound `COc1ccc(OC(C)C(=O)NCC2CCCO2)cc1` (configuration not stated) came in with a solubility (kinetic) of over 41.9 µg/mL.

Compound `CNC1=CC(=O)CC(c2ccccc2)C1` (configuration not stated) displayed a solubility (kinetic) of over 30.2 µg/mL.

Compound `CC(Sc1nnc(Cc2ccccc2)o1)C(=O)NC1(C#N)CCCCC1` (configuration not stated) came in with a kinetic solubility of over 55.6 µg/mL.

As to `CCCCn1c(O)c(C=NCc2ccc3c(c2)OCO3)c(=O)[nH]c1=O`, the kinetic solubility came out at 6.8 µg/mL (≈ 19.7 µM).

With `CC(C)c1ccc(NC(=O)N2CCOCC2)cc1`, the kinetic solubility was over 37.2 µg/mL.

For `Fc1ccccc1CNCCc1ccc2c(c1)OCO2`, the kinetic solubility is 40.5 µg/mL (≈ 148 µM).

`N#Cc1cc(C#N)c(SCC(=O)NCC2CCCO2)nc1N` (configuration not stated) returned a kinetic solubility of over 47.6 µg/mL.

For `O=C(Nc1nncs1)c1cc(-c2ccco2)nc2ccccc12`, the kinetic solubility is over 48.4 µg/mL.

With `COc1ccc2nc(NC(=O)c3c(C)noc3C)sc2c1`, the solubility (kinetic) was over 45.5 µg/mL.

Compound `CC(=O)c1sc(NC(=O)c2cccc(C)c2)nc1C` had a solubility (kinetic) of 16.8 µg/mL (≈ 61.2 µM).

`COc1ccc(C(=O)NCCCNC(=O)c2ccccn2)cc1` registered a solubility (kinetic) of over 47 µg/mL.

In the case of `CCc1cccc(C)c1NC(=O)COC(=O)CSCc1ccccc1`, the kinetic solubility is 13.7 µg/mL (≈ 38.3 µM).

In turn, `CCCC(=O)Nc1ccc2c(c1)COC2=O` returned a solubility (kinetic) of 18.5 µg/mL (≈ 84.4 µM).

For the compound `O=C(Nc1ncc([N+](=O)[O-])s1)c1ccccc1Br`, the kinetic solubility was 41.1 µg/mL (≈ 125 µM).

Compound `CCCS(=O)(=O)N1CCCC(C(=O)NCC(OC)OC)C1` (configuration not stated) registered a kinetic solubility of 45.2 µg/mL (≈ 140 µM).

Consider `CC(C(=O)N1CCOCC1)n1cc([N+](=O)[O-])cn1` (configuration not stated), for which the kinetic solubility is over 38.1 µg/mL.

The compound `CC(C(N)=O)N1C(=O)NC2(CCCc3ccccc32)C1=O` (configuration not stated) registered a kinetic solubility of over 43.1 µg/mL.

The compound `O=C(CSc1cccc[n+]1[O-])NCCCc1ccccc1` returned a kinetic solubility of over 45.4 µg/mL.

Take `CCC1(C)Cc2c(sc3nc(SC)[nH]c(=S)c23)CO1` (configuration not stated): the solubility (kinetic) was 8.9 µg/mL (≈ 28.5 µM).
